Experiments:
Design in all cases: expressed in transfected cells; host or cells: HEK-293 (membranes)
human V1b receptor = target: T1, human V1b receptor (Homo sapiens, UniProt P47901); test: V1b binding assay (3H-AVP displacement, HEK-293 membranes); settings: for inhibition at 1 µM: 1.0 μM compound, read-out: V1b@1.0, % Inh
T1 sequence (P47901 1-424): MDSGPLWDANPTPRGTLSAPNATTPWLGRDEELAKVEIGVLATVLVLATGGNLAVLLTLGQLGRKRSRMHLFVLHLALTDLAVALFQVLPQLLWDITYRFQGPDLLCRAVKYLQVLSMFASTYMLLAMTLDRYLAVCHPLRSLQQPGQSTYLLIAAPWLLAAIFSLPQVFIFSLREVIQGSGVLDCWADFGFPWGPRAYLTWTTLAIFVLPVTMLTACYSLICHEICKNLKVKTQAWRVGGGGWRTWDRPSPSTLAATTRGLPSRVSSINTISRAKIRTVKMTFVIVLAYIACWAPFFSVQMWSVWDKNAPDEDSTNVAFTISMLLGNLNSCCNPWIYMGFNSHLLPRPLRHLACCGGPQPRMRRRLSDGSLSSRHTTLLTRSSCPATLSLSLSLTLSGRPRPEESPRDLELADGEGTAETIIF
Method: (§1) V1a, V1b or V2 Binding Assay
(§2) Receptor binding studies were performed using recombinant human V1a, V1b or V2 receptors. Cellular membranes were harvested from HEK-293 cells transfected to express either the V1a, V1b or V2 receptors. Compounds were evaluated for their ability to displace ^3H-arginine vasopressin (^3H-AVP; specific activity 40-87 Ci/mmol; NEN Life Sciences, Boston, Mass.). Compounds were solubilized in dimethylsulfoxide (DMSO) and diluted to working concentration of 10% DMSO with assay buffer (50 mM Tris, 5 mM MgCl2, 0.1% BSA, pH 7.5). Assay buffer was supplemented with several protease inhibitors (1 mM Pefabloc, 5 μg/ml aprotinin/leupeptin/pepstatin A, 50 μg/ml bacitracin; Sigma Chemical, St. Louis, Mo.). Non-specific binding was determined using 1.25 μM arginine vasopressin (AVP; Peninsula Labs, Belmont, Calif.). Assay reagents and test compounds were added to 96-well round bottom polypropylene plates (145 μl buffer, 5 μl compound in 10% DMSO, 25 μl buffer containing 10,000 cpm tracer, 25 μl cell membrane). After incubation for 1 hour at room temperature, the well contents were aspirated across a Unifilter GF/C plate (Packard Instrument, Downers Grove, Ill.) which had been presoaked in 0.3% polyethyleneimine to prevent peptide sticking. The wells were washed repeatedly with cold saline containing 0.05% Tween 20. The plate was then dried and 25 μl Microscint-20 cocktail (Packard Instruments) added to each well. The plates were sealed and counted on a TopCount scintillation counter (Packard Instruments) using quench correction.

human V1a receptor = human V1a receptor (Homo sapiens, UniProt P37288); test: V1a binding assay (3H-AVP displacement, HEK-293 membranes); settings: for inhibition at 1 µM: 1.0 μM compound, read-out: V1a@1.0, % Inh
Method: as §1, §2

human V2 receptor = human V2 receptor (Homo sapiens, UniProt P30518); test: V2 binding assay (3H-AVP displacement, HEK-293 membranes); settings: 1.0 μM compound; for inhibition at 1 µM: read-out: V2@1.0, % Inh
Method: as §1, §2

Sequence of human V1a receptor (P37288 whole entry): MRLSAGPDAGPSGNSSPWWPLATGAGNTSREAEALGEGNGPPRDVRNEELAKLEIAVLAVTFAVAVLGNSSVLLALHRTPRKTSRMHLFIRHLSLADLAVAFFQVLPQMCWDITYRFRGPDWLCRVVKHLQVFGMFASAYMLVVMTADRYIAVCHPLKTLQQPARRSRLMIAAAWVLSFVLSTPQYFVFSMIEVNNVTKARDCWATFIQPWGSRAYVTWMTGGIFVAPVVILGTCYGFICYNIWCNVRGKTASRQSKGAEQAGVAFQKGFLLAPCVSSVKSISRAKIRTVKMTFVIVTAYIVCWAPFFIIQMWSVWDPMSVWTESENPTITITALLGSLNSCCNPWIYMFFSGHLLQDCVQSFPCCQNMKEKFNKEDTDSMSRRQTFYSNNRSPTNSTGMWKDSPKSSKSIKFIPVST
Sequence of human V2 receptor (P30518 whole entry): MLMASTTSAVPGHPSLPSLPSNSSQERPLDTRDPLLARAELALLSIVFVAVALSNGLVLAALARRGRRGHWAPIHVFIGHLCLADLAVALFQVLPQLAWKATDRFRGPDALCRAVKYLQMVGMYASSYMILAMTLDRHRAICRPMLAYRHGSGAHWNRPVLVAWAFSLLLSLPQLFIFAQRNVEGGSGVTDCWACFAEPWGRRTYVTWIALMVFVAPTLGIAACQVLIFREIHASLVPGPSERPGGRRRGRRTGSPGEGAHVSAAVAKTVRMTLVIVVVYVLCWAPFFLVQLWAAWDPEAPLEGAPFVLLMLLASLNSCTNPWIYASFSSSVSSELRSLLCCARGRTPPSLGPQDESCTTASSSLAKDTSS

Row | SMILES | inhibition at 1 µM (human V1b receptor) [%] | IC50 (human V1a receptor) [nM] | inhibition at 1 µM (human V2 receptor) [%] | inhibition at 0.5 µM (human V1a receptor; 0.5 μM compound, read-out: V1a % Inh @0.5) [%] | inhibition at 1 µM (human V1a receptor) [%] | IC50 (human V1b receptor) [nM] | V2@1.0, % Inh (human V2 receptor; 1 µM) [%]
1 | O=c1n(CCCN2CC=CCC2)c2ccccc2n1C1CCN(C(=S)NC(c2ccccc2)c2ccccc2)CC1 [Compound 143] | 65 | 41 | 8 | – | – | – | –
2 | CN1CCN=C1NCCCn1c(=O)n(C2CCN(C(=S)NC(c3ccccc3)c3ccccc3)CC2)c2ccccc21 [Compound 144] | 31 | 395 | 2 | – | – | – | –
3 | CC(CN1CCCCC1)Cn1c(=O)n(C2CCN(C(=S)NC(c3ccccc3)c3ccccc3)CC2)c2ccccc21 (stereo not shown) [Compound 146] | 33 | – | 0 | 15 | 85 | – | –
4 | CC(CN1CCCCC1)Cn1c(=O)n(C2CCN(C(=O)NC(c3ccccc3)c3ccccc3)CC2)c2ccccc21 (stereo not shown) [Compound 147] | 27 | 440 | 1 | – | – | – | –
5 | CC(CN1CCCC1)Cn1c(=O)n(C2CCN(C(=S)NC(c3ccccc3)c3ccccc3)CC2)c2ccccc21 (stereo not shown) [Compound 148] | 40 | 53 | 1 | – | – | – | –
6 | CC(CN1CCCC1)Cn1c(=O)n(C2CCN(C(=O)NC(c3ccccc3)c3ccccc3)CC2)c2ccccc21 (stereo not shown) [Compound 149] | 44 | 42 | 0 | – | – | – | –
7 | O=C(Cc1ccc(N2CCCC2)cc1)n1c(=O)n(C2CCN(C(=S)NC(c3ccccc3)c3ccccc3)CC2)c2ccccc21 [Compound 150] | 16 | – | 0 | – | 38 | – | –
8 | O=C(NC1c2ccccc2-c2ccccc21)N1CCC(n2c(=O)n(CCCN3CCCCC3)c3ccccc32)CC1 [Compound 152] | 38 | 230 | 2 | – | – | – | –
9 | O=C(Nc1ccccc1-c1ccccc1)N1CCC(n2c(=O)n(CCCN3CCCCC3)c3ccccc32)CC1 [Compound 162] | 26 | 117 | 4 | – | – | – | –
10 | O=c1n(Cc2ccc(-c3csnn3)cc2)c2ccccc2n1C1CCN(C(=S)NC(c2ccccc2)c2ccccc2)CC1 [Compound 167] | 1 | – | 8 | – | 12 | – | –
11 | O=c1n(CCCN2CCC(N3CCCCC3)CC2)c2ccccc2n1C1CCN(C(=S)NC(c2ccccc2)c2ccccc2)CC1 [Compound 170] | – | 80 | 6 | – | – | 680 | –
12 | Cc1ccc2c(c1)n(CCCN1CCCCC1)c(=O)n2C1CCN(C(=O)NC(c2ccccc2)c2ccccc2)CC1 [Compound 171] | 33 | – | 2 | – | 65 | – | –
13 | Cc1ccc2c(c1)n(CCCN1CCCCC1)c(=O)n2C1CCN(C(=S)NC(c2ccccc2)c2ccccc2)CC1 [Compound 172] | – | 72 | 6 | – | – | 700 | –

The next lines start with the values.

Row | inhibition at 1 µM (human V1b receptor) [%] | IC50 (human V1a receptor) [nM] | inhibition at 1 µM (human V2 receptor) [%] | inhibition at 0.5 µM (human V1a receptor; 0.5 μM compound, read-out: V1a % Inh @0.5) [%] | inhibition at 1 µM (human V1a receptor) [%] | IC50 (human V1b receptor) [nM] | V2@1.0, % Inh (human V2 receptor; 1 µM) [%] | SMILES
14 | 56 | 68 | 4 | – | – | – | – | O=c1n(CCCN2CCCCCCC2)c2ccccc2n1C1CCN(C(=S)NC(c2ccccc2)c2ccccc2)CC1 [Compound 142]
15 | 37 | – | 0 | – | 62 | – | – | Cc1ccccc1CNC(=O)N1CCC(n2c(=O)n(CCCN3CCCCC3)c3ccccc32)CC1 [Compound 151]
16 | 0 | – | 0 | – | 0 | – | – | O=c1n(CCCN2CCCCC2)c2ccccc2n1C1CCN(C(=S)Nc2ccc(N3CCOCC3)cc2)CC1 [Compound 153]
17 | 0 | – | 3 | – | 7 | – | – | O=c1n(CCCN2CCCCC2)c2ccccc2n1C1CCN(C(=S)Nc2cccnc2)CC1 [Compound 154]
18 | 10 | – | 5 | – | 28 | – | – | O=c1n(CCCN2CCCCC2)c2ccccc2n1C1CCN(C(=S)Nc2ccc3c(c2)CCC3)CC1 [Compound 155]
19 | 22 | 450 | 3 | – | – | – | – | O=c1n(CCCN2CCCCC2)c2ccccc2n1C1CCN(C(=S)Nc2ccc3c(c2)OCO3)CC1 [Compound 156]
20 | 0 | – | 6 | – | 5 | – | – | O=C1OCCC1NC(=S)N1CCC(n2c(=O)n(CCCN3CCCCC3)c3ccccc32)CC1 (stereo not shown) [Compound 157]
21 | 18 | – | 42 | – | 55 | – | – | O=c1n(CCCN2CCCCC2)c2ccccc2n1C1CCN(C(=S)NCc2ccco2)CC1 [Compound 158]
22 | 10 | – | 0 | – | 2 | – | – | O=c1n(CCCN2CCCCC2)c2ccccc2n1C1CCN(C(=S)NCC2CCCO2)CC1 (stereo not shown) [Compound 159]
23 | 27 | 230 | 0 | – | – | – | – | O=c1n(CCCN2CCCCC2)c2ccccc2n1C1CCN(C(=S)NCc2cccs2)CC1 [Compound 160]
24 | 40 | 108 | 2 | – | – | – | – | O=c1n(CCCN2CCCCC2)c2ccccc2n1C1CCN(C(=S)Nc2ccccc2-c2ccccc2)CC1 [Compound 161]
25 | 27 | 150 | 0 | – | – | – | – | O=c1n(CCCN2CCCCC2)c2ccccc2n1C1CCN(C(=S)NCc2ccc3c(c2)OCO3)CC1 [Compound 163]
26 | 35 | 86 | 5 | – | – | – | – | O=c1n(CCCN2CCCCC2)c2ccccc2n1C1CCN(C(=S)NCc2ccc(Cl)cc2Cl)CC1 [Compound 164]
27 | 20 | – | 3 | – | 40 | – | – | CN(C)c1ccc(CNC(=S)N2CCC(n3c(=O)n(CCCN4CCCCC4)c4ccccc43)CC2)cc1 [Compound 165]
28 | 16 | – | 19 | – | 5 | – | – | CSC(=O)NC(=N)N1CCC(n2c(=O)n(CCCN3CCCCC3)c3ccccc32)CC1 [Compound 166]
29 | 25 | – | 2 | – | 62 | – | – | O=c1n(CCCN2CCCCC2)c2ccccc2n1C1CCN(C(=S)NCc2cccnc2)CC1 [Compound 168]
30 | – | 12 | – | – | – | 1720 | 4 | O=c1n(CCCN2CCCCC2)c2ccccc2n1C1CCN(C(=S)NCc2ccccc2-c2ccccc2)CC1 [Compound 169]
31 | 43 | 250 | 0 | – | – | – | – | CC(C)(NC(=S)N1CCC(n2c(=O)n(CCCN3CCCCC3)c3ccccc32)CC1)c1ccccc1 [Compound 173]
32 | 34 | 420 | 0 | – | – | – | – | O=c1n(CCCN2CCCCC2)c2ccccc2n1C1CCN(C(=S)NCc2ccc(Cl)c(Cl)c2)CC1 [Compound 174]
